Where two headings read alike, the source gives them in different places.
Experiments:
[1] = test system: mycobacteria of the avium complex, patient Sa; assay: MIC alone and in combination; assay type: cell-based; conditions: Homo sapiens, single
[2] = test system: mycobacteria of the avium complex, patient Me; assay: MIC alone and in combination; assay type: cell-based; conditions: Homo sapiens, single
[3] = test system: mycobacteria of the avium complex, patient Ku; assay: MIC alone and in combination; assay type: cell-based; conditions: Homo sapiens, single
[4] = test system: mycobacteria of the avium complex, patient Wi; assay: MIC alone and in combination; assay type: cell-based; conditions: Homo sapiens, single
[5] = test system: mycobacteria of the avium complex, patient Vo; assay: MIC alone and in combination; assay type: cell-based; conditions: Homo sapiens, single
[6] = test system: mycobacteria of the avium complex, patient Bi; assay: MIC alone and in combination; assay type: cell-based; conditions: Homo sapiens, single
[7] = test system: mycobacteria of the avium complex, patient Ma; assay: MIC alone and in combination; assay type: cell-based; conditions: Homo sapiens, single
[8] = test system: mycobacteria of the avium complex, patient Ka-B; assay: MIC alone and in combination; assay type: cell-based; conditions: Homo sapiens, single
[9] = test system: mycobacteria of the avium complex, patient two; assay: MIC alone and in combination; assay type: cell-based; conditions: Homo sapiens, single
[10] = test system: mycobacteria of the avium complex, patient one; assay: MIC alone and in combination; assay type: cell-based; conditions: Homo sapiens, single
M.tuberculosis H37Rv = assay: chess-board titration, growth inhibition; assay type: cell-based
[11] = test system: RMP-resistant patient strain M. avium BK; assay: chess-board titration, growth inhibition; assay type: cell-based;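 also: +++ means growth as in control and minus means complete inhibition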
[12] = test system: mycobacteria of the MOTT-complex; assay: effect when administered alone; conditions: administered alone (cf. Example 2, Table 2 and Table 5)
M. avium 227 = assay: MIC of the individual substances
Method: (§1) The bacteria were cultivated in a liquid nutrient medium according to Lockemann (cf. "Nachweisverfahren fur Mykobakterien aus Untersuchungsmaterial, III, Nahrbodenrezepte zur Kultur von Tuberkulosebakterien, 1978, Publisher: Deutsches Zentralkomitee zur Bekampfung der Tuberkulose, Poppenhusenstrasse 14c, 2000 Hamburg 60) enriched with 0.5 % albumin and 1 % human serum. In each case 5×10^-3 to 5 ×10^-5 mg, referred to the weight in wet state, of the mycobacteria strains were incubated in 2 ml of the culture liquid at 37° C. with graded concentrations of RMP and Thz. Readings were taken from the culture tubes after 8 to 15 days.
(§2) The MIC is the concentration of the growth inhibitor in μg/ml, at which no multiplication of the seeded cells can be established.

M. avium Ro = assay: MIC of the individual substances; conditions: for MIC: single substance
Method: as §1, §2

M. avium Dan = assay: MIC of the individual substances; conditions: for MIC: single substance
Method: as §1, §2

M. avium Bi = assay: MIC of the individual substances; conditions: single substance
Method: as §1, §2

mycobacteria = conditions: administered alone in acceptable doses; cited from earlier work
[13] = higher doses; cited from earlier work
[14] = Mycobacterium avium, 227, read-out: average inhibiting concentration alone

CC[C@@H](CO)NCCN[C@@H](CC)CO [EMB, ethambutol]
MIC [1]: > 32 mg/L | MIC [2]: 8 mg/L | MIC [3]: > 32 mg/L | MIC [4]: > 32 mg/L | MIC [5]: 4 to 8 mg/L | MIC [6]: 4 mg/L | MIC [7]: 32 mg/L | MIC [8]: > 32 mg/L | MIC [9]: 16 to 32 mg/L | MIC [10]: > 32 mg/L

CO[C@H]1/C=C/O[C@@]2(C)Oc3c(C)c(O)c4c(O)c(c(/C=N/N5CCN(C)CC5)c(O)c4c3C2=O)NC(=O)/C(C)=C\C=C\[C@H](C)[C@H](O)[C@@H](C)[C@@H](O)[C@@H](C)[C@H](OC(C)=O)[C@@H]1C [RMP, rifampicin]
growth inhibition (M.tuberculosis H37Rv; Rifampicin .006 ug/ml, Thioacetazon 0): +++ | growth inhibition (M.tuberculosis H37Rv; Rifampicin .012 ug/ml, Thioacetazon 0): +++ | growth inhibition (M.tuberculosis H37Rv; Rifampicin .018 ug/ml, Thioacetazon 0): +++ | growth inhibition (M.tuberculosis H37Rv; Rifampicin .024 ug/ml, Thioacetazon 0): +++ | growth inhibition (M.tuberculosis H37Rv; Rifampicin .030 ug/ml, Thioacetazon 0): ++ | growth inhibition (M.tuberculosis H37Rv; Rifampicin .036 ug/ml, Thioacetazon 0): + | growth inhibition (M.tuberculosis H37Rv; Rifampicin .042 ug/ml, Thioacetazon 0): + | growth inhibition (M.tuberculosis H37Rv; Rifampicin .048 ug/ml, Thioacetazon 0): + | growth inhibition (M.tuberculosis H37Rv; Rifampicin .054 ug/ml, Thioacetazon 0): - | growth inhibition (M.tuberculosis H37Rv; Rifampicin .06 ug/ml, Thioacetazon 0): - | growth inhibition ([11]; Rifampicin 0.8 ug/ml, Thioacetazon 0.000): +++ | growth inhibition ([11]; Rifampicin 1.6 ug/ml, Thioacetazon 0.000): +++ | growth inhibition ([11]; Rifampicin 2.4 ug/ml, Thioacetazon 0.000): ++ | growth inhibition ([11]; Rifampicin 3.2 ug/ml, Thioacetazon 0.000): ++ | growth inhibition ([11]; Rifampicin 4 ug/ml, Thioacetazon 0.000): - | growth inhibition ([11]; Rifampicin 4.8 ug/ml, Thioacetazon 0.000): - | growth inhibition ([11]; Rifampicin 5.4 ug/ml, Thioacetazon 0.000): - | growth inhibition ([11]; Rifampicin 6.4 ug/ml, Thioacetazon 0.000): - | growth inhibition ([11]; Rifampicin 7.2 ug/ml, Thioacetazon 0.000): - | growth inhibition ([11]; Rifampicin 8 ug/ml, Thioacetazon 0.000): - | MIC [1]: 8 mg/L | MIC [2]: 16 mg/L | MIC [3]: 32 mg/L | MIC [4]: > 32 mg/L | MIC [5]: 16 mg/L | MIC [6]: 4 mg/L | MIC [7]: > 32 mg/L | MIC [8]: > 32 mg/L | MIC [9]: 32 mg/L | MIC [10]: > 32 mg/L | effect against the mycobacteria of the MOTT-complex [12]: no effect or only a slight effect | MIC (M. avium 227; M. avium 227, single substance): 8 mg/L | MIC (M. avium 227; [14]): 8 mg/L | resistance (M. avium Ro): completely resistant | MIC (M. avium Ro): > 32 mg/L | MIC (M. avium Dan): 16 mg/L | MIC (M. avium Bi): 3 mg/L

CC(=O)Nc1ccc(C=NNC(N)=S)cc1 [Thz, thioacetazon]
growth inhibition (M.tuberculosis H37Rv; Thioacetazon .05 ug/ml, Rifampicin 0): +++ | growth inhibition (M.tuberculosis H37Rv; Thioacetazon .10 ug/ml, Rifampicin 0): +++ | growth inhibition (M.tuberculosis H37Rv; Thioacetazon .15 ug/ml, Rifampicin 0): +++ | growth inhibition (M.tuberculosis H37Rv; Thioacetazon .20 ug/ml, Rifampicin 0): +++ | growth inhibition (M.tuberculosis H37Rv; Thioacetazon .25 ug/ml, Rifampicin 0): +++ | growth inhibition (M.tuberculosis H37Rv; Thioacetazon .30 ug/ml, Rifampicin 0): +++ | growth inhibition (M.tuberculosis H37Rv; Thioacetazon .35 ug/ml, Rifampicin 0): +++ | growth inhibition (M.tuberculosis H37Rv; Thioacetazon .40 ug/ml, Rifampicin 0): + ++ | growth inhibition (M.tuberculosis H37Rv; Thioacetazon .45 ug/ml, Rifampicin 0): +++ | growth inhibition (M.tuberculosis H37Rv; Thioacetazon .50 ug/ml, Rifampicin 0): +++ | growth inhibition ([11]; Thioacetazon 0.8 ug/ml, Rifampicin 0): +++ | growth inhibition ([11]; Thioacetazon 1.6 ug/ml, Rifampicin 0): +++ | growth inhibition ([11]; Thioacetazon 2.4 ug/ml, Rifampicin 0): ++ | growth inhibition ([11]; Thioacetazon 3.2 ug/ml, Rifampicin 0): ++ | growth inhibition ([11]; Thioacetazon 4 ug/ml, Rifampicin 0): ++ | growth inhibition ([11]; Thioacetazon 4.8 ug/ml, Rifampicin 0): ++ | growth inhibition ([11]; Thioacetazon 5.6 ug/ml, Rifampicin 0): + | growth inhibition ([11]; Thioacetazon 6.4 ug/ml, Rifampicin 0): + | growth inhibition ([11]; Thioacetazon 7.2 ug/ml, Rifampicin 0): + | growth inhibition ([11]; Thioacetazon 8 ug/ml, Rifampicin 0): + | MIC [1]: 32 mg/L | MIC [2]: 32 mg/L | MIC [3]: 32 mg/L | MIC [4]: 32 mg/L | MIC [5]: 32 mg/L | MIC [6]: > 32 mg/L | MIC [7]: > 32 mg/L | MIC [8]: > 32 mg/L | MIC [9]: 32 mg/L | MIC [10]: 16 mg/L | anti-mycobacterial effect (mycobacteria): only of weak effect | undesirable side-effects [13]: can lead to undesirable side-effects in higher doses | MIC (M. avium 227; M. avium 227, single substance): 32 mg/L | MIC (M. avium 227; [14]): 32 mg/L | resistance (M. avium Ro): completely resistant | MIC (M. avium Ro): > 32 mg/L | resistance (M. avium Dan): resistant | MIC (M. avium Dan): > 32 mg/L | MIC (M. avium Bi): 3 mg/L

NNC(=O)c1ccncc1 [INH, isonicotinic acid hydrazide]
MIC [1]: 32 mg/L | MIC [2]: 16 mg/L | MIC [3]: 4 mg/L | MIC [4]: 16 mg/L | MIC [5]: 8 mg/L | MIC [6]: > 32 mg/L | MIC [7]: > 32 mg/L | MIC [8]: 32 mg/L | MIC [9]: 16 mg/L | MIC [10]: 4 mg/L

From patent US5104875A, “Combination preparations containing rifampicin and thioacetazon” (priority 1989, dated 1992)
